Data published in patent publication US20230365592A1 (Agios Pharmaceuticals, Inc., priority 2022, published 2023).
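Also: after compound treatment, cells received sepiapterin plus isotope-labelled Phenylalanine for 4 hours, then labelled Tyrosine in the medium was quantified, 10-point 2-fold dilution series run in duplicate.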

Each molecule was assayed against T1, human PAH with the R408W mutation (Homo sapiens, UniProt P00439, R408W) (assay: Cell Based Phenylalanine Flux Assay). Conditions: A375 cells expressing human PAH R408W; 24 hrs compound incubation; 13C-Tyrosine by LC-MS; average where tested multiple times; read-out: AC50.
T1 construct: expressed in transfected cells
T1 sequence (P00439 1-452 R408W): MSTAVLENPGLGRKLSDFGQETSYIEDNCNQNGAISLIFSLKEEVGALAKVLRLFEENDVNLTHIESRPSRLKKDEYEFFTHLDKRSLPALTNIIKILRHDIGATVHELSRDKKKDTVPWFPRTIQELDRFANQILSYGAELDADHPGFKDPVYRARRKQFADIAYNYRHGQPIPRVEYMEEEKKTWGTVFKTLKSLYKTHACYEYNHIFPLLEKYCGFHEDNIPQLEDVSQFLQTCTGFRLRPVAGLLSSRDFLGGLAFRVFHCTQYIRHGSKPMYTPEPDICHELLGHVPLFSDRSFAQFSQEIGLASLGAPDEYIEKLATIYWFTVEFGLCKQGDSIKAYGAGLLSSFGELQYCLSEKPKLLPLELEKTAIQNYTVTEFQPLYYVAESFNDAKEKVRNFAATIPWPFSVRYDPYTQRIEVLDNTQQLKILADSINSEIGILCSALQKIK
`COc1cccn2nc([C@H]3c4nc[nH]c4CCN3c3ccc(C(F)(F)F)cn3)cc12` [Example 2246, (R)-4-(4-methoxypyrazolo[1,5-a]pyridin-2-yl)-5-(5-(trifluoromethyl)pyridin-2-yl)-4,5,6,7-tetrahydro-1H-imidazo[4,5-c]pyridine] gave an AC50 greater than 5000 nM.
`COc1cccn2nc([C@@H]3c4nc[nH]c4CCN3c3ccc(C(F)(F)F)cn3)cc12` [Example 2247, (S)-4-(4-methoxypyrazolo[1,5-a]pyridin-2-yl)-5-(5-(trifluoromethyl)pyridin-2-yl)-4,5,6,7-tetrahydro-1H-imidazo[4,5-c]pyridine] was tested, and the AC50 was less than 500 nM.
In the case of `Cc1nnc(N2CCc3[nH]cnc3[C@H]2c2cc3c(OC(F)(F)F)cccn3n2)o1` [Example 2249, (S)-2-methyl-5-(4-(4-(trifluoromethoxy)pyrazolo[1,5-a]pyridin-2-yl)-1,4,6,7-tetrahydro-5H-imidazo[4,5-c]pyridin-5-yl)-1,3,4-oxadiazole], the AC50 was less than 500 nM.
Work on `FC(F)(F)Oc1cccn2nc([C@@H]3c4nc[nH]c4CCN3c3nnc(C(F)(F)F)o3)cc12` [Example 2253, (S)-2-(4-(4-(trifluoromethoxy)pyrazolo[1,5-a]pyridin-2-yl)-1,4,6,7-tetrahydro-5H-imidazo[4,5-c]pyridin-5-yl)-5-(trifluoromethyl)-1,3,4-oxadiazole] yielded an AC50 of less than 500 nM.
Work on `FC(F)Oc1cccn2nc([C@@H]3c4nc[nH]c4CCN3c3ncccn3)cc12` [Example 2254, (S)-4-(4-(difluoromethoxy)pyrazolo[1,5-a]pyridin-2-yl)-5-(pyrimidin-2-yl)-4,5,6,7-tetrahydro-1H-imidazo[4,5-c]pyridine] yielded an AC50 of less than 500 nM.
For `FC(F)Oc1cccn2nc([C@H]3c4nc[nH]c4CCN3c3ncccn3)cc12` [Example 2255, (R)-4-(4-(difluoromethoxy)pyrazolo[1,5-a]pyridin-2-yl)-5-(pyrimidin-2-yl)-4,5,6,7-tetrahydro-1H-imidazo[4,5-c]pyridine], the AC50 was 1000 to 5000 nM.
Work on `FC(F)Oc1cccn2nc([C@@H]3c4nc[nH]c4CCN3c3ncc(C(F)(F)F)cn3)cc12` [Example 2256, (S)-4-(4-(difluoromethoxy)pyrazolo[1,5-a]pyridin-2-yl)-5-(5-(trifluoromethyl)pyrimidin-2-yl)-4,5,6,7-tetrahydro-1H-imidazo[4,5-c]pyridine] yielded an AC50 of less than 500 nM.
Molecule `FC(F)Oc1cccn2nc([C@H]3c4nc[nH]c4CCN3c3ncc(C(F)(F)F)cn3)cc12` [Example 2257, (R)-4-(4-(difluoromethoxy)pyrazolo[1,5-a]pyridin-2-yl)-5-(5-(trifluoromethyl)pyrimidin-2-yl)-4,5,6,7-tetrahydro-1H-imidazo[4,5-c]pyridine] has an AC50 greater than 5000 nM.
With `CC1(c2nnc(N3CCc4[nH]cnc4[C@H]3c3cc4c(Cl)cccn4n3)o2)CC1` [Example 2259, (S)-2-(4-(4-chloropyrazolo[1,5-a]pyridin-2-yl)-1,4,6,7-tetrahydro-5H-imidazo[4,5-c]pyridin-5-yl)-5-(1-methylcyclopropyl)-1,3,4-oxadiazole] the AC50 was 500 to 1000 nM.
In the case of `CC(C)c1cccn2nc([C@H]3c4nc[nH]c4CCN3c3nnc(-c4cccnc4)o3)cc12` [Example 2260, (R)-2-(4-(4-isopropylpyrazolo[1,5-a]pyridin-2-yl)-1,4,6,7-tetrahydro-5H-imidazo[4,5-c]pyridin-5-yl)-5-(pyridin-3-yl)-1,3,4-oxadiazole], the AC50 was greater than 5000 nM.
With `Cc1cccnc1-c1nnc(N2CCc3[nH]cnc3[C@@H]2c2cc3ccccn3n2)o1` [Example 2266, (R)-2-(3-methylpyridin-2-yl)-5-(4-(pyrazolo[1,5-a]pyridin-2-yl)-1,4,6,7-tetrahydro-5H-imidazo[4,5-c]pyridin-5-yl)-1,3,4-oxadiazole] the AC50 was greater than 5000 nM.
`Cc1cccnc1-c1nnc(N2CCc3[nH]cnc3[C@H]2c2cc3ccccn3n2)o1` [Example 2267, (S)-2-(3-methylpyridin-2-yl)-5-(4-(pyrazolo[1,5-a]pyridin-2-yl)-1,4,6,7-tetrahydro-5H-imidazo[4,5-c]pyridin-5-yl)-1,3,4-oxadiazole] showed an AC50 of less than 500 nM.
`Cc1cccnc1-c1nnc(N2CCc3[nH]cnc3[C@@H]2c2cc3c(C)cccn3n2)o1` [Example 2268, (R)-2-(4-(4-methylpyrazolo[1,5-a]pyridin-2-yl)-1,4,6,7-tetrahydro-5H-imidazo[4,5-c]pyridin-5-yl)-5-(3-methylpyridin-2-yl)-1,3,4-oxadiazole] showed an AC50 greater than 5000 nM.
For `Cc1cccnc1-c1nnc(N2CCc3[nH]cnc3[C@H]2c2cc3c(C)cccn3n2)o1` [Example 2269, (S)-2-(4-(4-methylpyrazolo[1,5-a]pyridin-2-yl)-1,4,6,7-tetrahydro-5H-imidazo[4,5-c]pyridin-5-yl)-5-(3-methylpyridin-2-yl)-1,3,4-oxadiazole], the AC50 was less than 500 nM.
In the case of `FC(F)(F)Oc1cccn2nc([C@@H]3c4nc[nH]c4CCN3c3ncccn3)cc12` [Example 2270, (S)-5-(pyrimidin-2-yl)-4-(4-(trifluoromethoxy)pyrazolo[1,5-a]pyridin-2-yl)-4,5,6,7-tetrahydro-1H-imidazo[4,5-c]pyridine], the AC50 was less than 500 nM.
`FC(F)(F)Oc1cccn2nc([C@H]3c4nc[nH]c4CCN3c3ncccn3)cc12` [Example 2271, (R)-5-(pyrimidin-2-yl)-4-(4-(trifluoromethoxy)pyrazolo[1,5-a]pyridin-2-yl)-4,5,6,7-tetrahydro-1H-imidazo[4,5-c]pyridine] gave an AC50 greater than 5000 nM.
In the case of `FC(F)Oc1cccn2nc([C@H]3c4nc[nH]c4CCN3c3ccc(C(F)(F)F)cn3)cc12` [Example 2273, (R)-4-(4-(difluoromethoxy)pyrazolo[1,5-a]pyridin-2-yl)-5-(5-(trifluoromethyl)pyridin-2-yl)-4,5,6,7-tetrahydro-1H-imidazo[4,5-c]pyridine], the AC50 was greater than 5000 nM.
Work on `Cc1cccc2cc([C@@H]3c4nc[nH]c4CCN3c3nnc(-c4cccnc4F)o3)nn12` [Example 2274, (S)-2-(2-fluoropyridin-3-yl)-5-(4-(7-methylpyrazolo[1,5-a]pyridin-2-yl)-1,4,6,7-tetrahydro-5H-imidazo[4,5-c]pyridin-5-yl)-1,3,4-oxadiazole] yielded an AC50 of 500 to 1000 nM.
Work on `Cc1cccc2cc([C@H]3c4nc[nH]c4CCN3c3nnc(-c4cccnc4F)o3)nn12` [Example 2275, (R)-2-(2-fluoropyridin-3-yl)-5-(4-(7-methylpyrazolo[1,5-a]pyridin-2-yl)-1,4,6,7-tetrahydro-5H-imidazo[4,5-c]pyridin-5-yl)-1,3,4-oxadiazole] yielded an AC50 greater than 5000 nM.
For `Cc1cccnc1-c1nnc(N2CCc3[nH]cnc3[C@H]2c2cc3c(C(F)(F)F)cccn3n2)o1` [Example 2276, (S)-2-(3-methylpyridin-2-yl)-5-(4-(4-(trifluoromethyl)pyrazolo[1,5-a]pyridin-2-yl)-1,4,6,7-tetrahydro-5H-imidazo[4,5-c]pyridin-5-yl)-1,3,4-oxadiazole], the AC50 was less than 500 nM.
Work on `Cc1cccnc1-c1nnc(N2CCc3[nH]cnc3[C@@H]2c2cc3c(C(F)(F)F)cccn3n2)o1` [Example 2277, (R)-2-(3-methylpyridin-2-yl)-5-(4-(4-(trifluoromethyl)pyrazolo[1,5-a]pyridin-2-yl)-1,4,6,7-tetrahydro-5H-imidazo[4,5-c]pyridin-5-yl)-1,3,4-oxadiazole] yielded an AC50 greater than 5000 nM.
For `Cc1cccnc1-c1nnc(N2CCc3[nH]cnc3[C@@H]2c2cc3c(C(F)F)cccn3n2)o1` [Example 2278, (R)-2-(4-(4-(difluoromethyl)pyrazolo[1,5-a]pyridin-2-yl)-1,4,6,7-tetrahydro-5H-imidazo[4,5-c]pyridin-5-yl)-5-(3-methylpyridin-2-yl)-1,3,4-oxadiazole], the AC50 was greater than 5000 nM.
For `Cc1cccnc1-c1nnc(N2CCc3[nH]cnc3[C@H]2c2cc3c(F)cccn3n2)o1` [Example 2280, (S)-2-(4-(4-fluoropyrazolo[1,5-a]pyridin-2-yl)-1,4,6,7-tetrahydro-5H-imidazo[4,5-c]pyridin-5-yl)-5-(3-methylpyridin-2-yl)-1,3,4-oxadiazole], the AC50 was less than 500 nM.
With `Cc1cccnc1-c1nnc(N2CCc3[nH]cnc3[C@@H]2c2cc3c(C4CC4)cccn3n2)o1` [Example 2282, (R)-2-(4-(4-cyclopropylpyrazolo[1,5-a]pyridin-2-yl)-1,4,6,7-tetrahydro-5H-imidazo[4,5-c]pyridin-5-yl)-5-(3-methylpyridin-2-yl)-1,3,4-oxadiazole] the AC50 was greater than 5000 nM.
With `Cc1cccnc1-c1nnc(N2CCc3[nH]cnc3[C@H]2c2cc3c(C4CC4)cccn3n2)o1` [Example 2283, (S)-2-(4-(4-cyclopropylpyrazolo[1,5-a]pyridin-2-yl)-1,4,6,7-tetrahydro-5H-imidazo[4,5-c]pyridin-5-yl)-5-(3-methylpyridin-2-yl)-1,3,4-oxadiazole] the AC50 was less than 500 nM.
With `Cc1cccnc1-c1nnc(N2CCc3[nH]cnc3[C@@H]2c2cc3c(C(C)C)cccn3n2)o1` [Example 2284, (R)-2-(4-(4-isopropylpyrazolo[1,5-a]pyridin-2-yl)-1,4,6,7-tetrahydro-5H-imidazo[4,5-c]pyridin-5-yl)-5-(3-methylpyridin-2-yl)-1,3,4-oxadiazole] the AC50 was greater than 5000 nM.
With `Cc1cccnc1-c1nnc(N2CCc3[nH]cnc3[C@H]2c2cc3c(C(C)C)cccn3n2)o1` [Example 2285, (S)-2-(4-(4-isopropylpyrazolo[1,5-a]pyridin-2-yl)-1,4,6,7-tetrahydro-5H-imidazo[4,5-c]pyridin-5-yl)-5-(3-methylpyridin-2-yl)-1,3,4-oxadiazole] the AC50 was less than 500 nM.
`Cc1cccnc1-c1nnc(N2CCc3[nH]cnc3[C@@H]2c2cc3c(Cl)cccn3n2)o1` [Example 2286, (R)-2-(4-(4-chloropyrazolo[1,5-a]pyridin-2-yl)-1,4,6,7-tetrahydro-5H-imidazo[4,5-c]pyridin-5-yl)-5-(3-methylpyridin-2-yl)-1,3,4-oxadiazole] gave an AC50 greater than 5000 nM.
